Literature values, collected in patent US20210199674A1, “TREATMENT METHOD, ANALYZING DEVICE, AND SURFACE TREATING LIQUID” (ARKRAY, Inc., priority 2019, published 2021).

Details: for acid dissociation constant pKa1: first acidic proton dissociates; for acid dissociation constant pKa4: fourth acidic proton dissociates; for acid dissociation constant pKa2: second acidic proton dissociates; for acid dissociation constant pKa3: third acidic proton dissociates

In the case of `O=P(O)(O)CP(=O)(O)O` [methylene diphosphonate], the “acid dissociation constant pKa1” value is listed as 1.43, the “acid dissociation constant pKa4” value is listed as 10.96 and the “acid dissociation constant pKa2” value is listed as 3.05. For the same molecule, the “acid dissociation constant pKa3” value was 7.35.
In the case of `O=P(O)(O)OP(=O)(O)O` [pyrophosphoric acid], the “acid dissociation constant pKa1” value is given as 0.9, the “acid dissociation constant pKa4” value is given as 9.4 and the “acid dissociation constant pKa2” value is given as 2.0. The “acid dissociation constant pKa3” value was 6.6.
